Laboratory results as given in patent US10449146B2, “Methods of treating parkinson's disease by administration of apomorphine to an oral mucosa” (Sunovion Pharmaceuticals Inc., priority 2015, dated 2019).
Where two headings read alike, the source gives them in different places.

Columns and labels:
[1] = Plasma apomorphine concentration in Parkinson's patients, minimum effective concentration; type: in vivo, human
Experimental: A range of doses was used. Over half of the patients needed only the lower two doses (Films J and K), and 80% used Film I, J, or K (FIG. 8; “apomorphine dose” in this Figure indicates the weight of apomorphine hydrochloride in the administered pharmaceutical unit dosage form). […] Eight patients had pharmacokinetic analyses; six of these eight patients have achieved “on” state. Mean plasma apomorphine concentration upon turning on was 2.64 ng/mL for the six patients. […] Responders had large, clinically meaningful UPDRS Part III changes (motor improvement) at all time-points while the non-responders had little motor improvement but not enough to convert from OFF to ON (FIG. 9B).

[2] = intravenous infusion, subjects having Parkinson's disease; cited from earlier work

Mean plasma apomorphine concentration upon turning on ([1]; six patients who achieved 'on' state, film to oral mucosa): 2.64 ng/mL | average plasma apomorphine concentration ([1]; two non-responders, all doses, each time point): < 2.64 ng/mL
SMILES: CN1CCc2cccc3c2[C@H]1Cc1ccc(O)c(O)c1-3 [apomorphine]
minimum effective concentration ([1]; administered to oral mucosa): about 2.64 ng/mL | minimum effective concentration [2]: 4.7 ng/mL
